Test results from BindingDB's records for doi:10.1021/acs.jnatprod.9b01022 (Taipei Chang Gung Memorial Hospital, 2020).

What was measured:
[1] = Reversal of ABCG2 (unknown origin)-mediated multidrug resistance in human S1-M1-80 cells assessed as effect on topotecan-induced cytotoxicity by measuring topotecan IC50 at 1 uM after 72 hrs by MTT assay (Rvb = 10.14 +/- 2.820 uM)
[2] = Reversal of ABCG2 (unknown origin)-mediated multidrug resistance in human H460-MX20 cells assessed as effect on topotecan-induced cytotoxicity by measuring topotecan IC50 at 0.5 uM after 72 hrs by MTT assay (Rvb = 1319.20 +/- 356.14 nM)
[3] = Reversal of ABCG2 (unknown origin)-mediated multidrug resistance in human H460-MX20 cells assessed as effect on topotecan-induced cytotoxicity by measuring topotecan IC50 at 1 uM after 72 hrs by MTT assay (Rvb = 1319.20 +/- 356.14 nM)
[4] = Reversal of ABCG2 (unknown origin)-mediated multidrug resistance in human S1-M1-80 cells assessed as effect on topotecan-induced cytotoxicity by measuring topotecan IC50 at 2 uM after 72 hrs by MTT assay (Rvb = 10.14 +/- 2.820 uM)
[5] = Reversal of ABCG2 (unknown origin)-mediated multidrug resistance in human S1-M1-80 cells assessed as effect on mitoxantrone-induced cytotoxicity by measuring mitoxantrone IC50 at 3 uM after 72 hrs by MTT assay (Rvb = 73.62 +/- 7.20 uM)
[6] = Reversal of human ABCG2-mediated multidrug resistance in HEK293/R482 cells assessed as effect on mitoxantrone-induced cytotoxicity by measuring mitoxantrone IC50 at 2 uM after 72 hrs by CCK8 assay (Rvb = 50.66 +/- 6.88 nM)
[7] = Reversal of ABCG2 (unknown origin)-mediated multidrug resistance in human S1-M1-80 cells assessed as effect on mitoxantrone-induced cytotoxicity by measuring mitoxantrone IC50 at 0.5 uM after 72 hrs by MTT assay (Rvb = 73.62 +/- 7.20 uM)
[8] = Reversal of human ABCG2-mediated multidrug resistance in HEK293/R482 cells assessed as effect on topotecan-induced cytotoxicity by measuring topotecan IC50 at 2 uM after 72 hrs by CCK8 assay (Rvb = 201.31 +/- 25.89 nM)
[9] = Reversal of human ABCC1-mediated multidrug resistance in HEK293/MRP1 cells assessed as effect on etoposide-induced cytotoxicity by measuring etoposide IC50 at 1 uM after 72 hrs by CCK8 assay (Rvb = 63.34 +/- 7.92 uM)
[10] = Reversal of human ABCC1-mediated multidrug resistance in HEK293/MRP1 cells assessed as effect on etoposide-induced cytotoxicity by measuring etoposide IC50 at 3 uM after 72 hrs by CCK8 assay (Rvb = 63.34 +/- 7.92 uM)
[11] = Reversal of human ABCG2-mediated multidrug resistance in HEK293/R482 cells assessed as effect on topotecan-induced cytotoxicity by measuring topotecan IC50 at 0.5 uM after 72 hrs by CCK8 assay (Rvb = 201.31 +/- 25.89 nM)
[12] = Reversal of ABCG2 (unknown origin)-mediated multidrug resistance in human S1-M1-80 cells assessed as effect on topotecan-induced cytotoxicity by measuring topotecan IC50 at 3 uM after 72 hrs by MTT assay (Rvb = 10.14 +/- 2.820 uM)
[13] = Reversal of ABCG2 (unknown origin)-mediated multidrug resistance in human H460-MX20 cells assessed as effect on mitoxantrone-induced cytotoxicity by measuring mitoxantrone IC50 at 2 uM after 72 hrs by MTT assay (Rvb = 1160.60 +/- 365.72 nM)
[14] = Reversal of human ABCG2-mediated multidrug resistance in HEK293/R482 cells assessed as effect on mitoxantrone-induced cytotoxicity by measuring mitoxantrone IC50 at 1 uM after 72 hrs by CCK8 assay (Rvb = 50.66 +/- 6.88 nM)
[15] = Reversal of ABCG2 (unknown origin)-mediated multidrug resistance in human H460-MX20 cells assessed as effect on mitoxantrone-induced cytotoxicity by measuring mitoxantrone IC50 at 1 uM after 72 hrs by MTT assay (Rvb = 1160.60 +/- 365.72 nM)
[16] = Reversal of ABCG2 (unknown origin)-mediated multidrug resistance in human H460-MX20 cells assessed as effect on topotecan-induced cytotoxicity by measuring topotecan IC50 at 3 uM after 72 hrs by MTT assay (Rvb = 1319.20 +/- 356.14 nM)
[17] = Reversal of ABCG2 (unknown origin)-mediated multidrug resistance in human S1-M1-80 cells assessed as effect on mitoxantrone-induced cytotoxicity by measuring mitoxantrone IC50 at 1 uM after 72 hrs by MTT assay (Rvb = 73.62 +/- 7.20 uM)
[18] = Reversal of human ABCC1-mediated multidrug resistance in HEK293/MRP1 cells assessed as effect on etoposide-induced cytotoxicity by measuring etoposide IC50 at 0.5 uM after 72 hrs by CCK8 assay (Rvb = 63.34 +/- 7.92 uM)
[19] = Reversal of ABCG2 (unknown origin)-mediated multidrug resistance in human H460-MX20 cells assessed as effect on mitoxantrone-induced cytotoxicity by measuring mitoxantrone IC50 at 3 uM after 72 hrs by MTT assay (Rvb = 1160.60 +/- 365.72 nM)
[20] = Reversal of ABCG2 (unknown origin)-mediated multidrug resistance in human S1-M1-80 cells assessed as effect on mitoxantrone-induced cytotoxicity by measuring mitoxantrone IC50 at 2 uM after 72 hrs by MTT assay (Rvb = 73.62 +/- 7.20 uM)
[21] = Reversal of ABCG2 (unknown origin)-mediated multidrug resistance in human H460-MX20 cells assessed as effect on topotecan-induced cytotoxicity by measuring topotecan IC50 at 2 uM after 72 hrs by MTT assay (Rvb = 1319.20 +/- 356.14 nM)
[22] = Reversal of human ABCC1-mediated multidrug resistance in HEK293/MRP1 cells assessed as effect on etoposide-induced cytotoxicity by measuring etoposide IC50 at 2 uM after 72 hrs by CCK8 assay (Rvb = 63.34 +/- 7.92 uM)
[23] = Reversal of human ABCG2-mediated multidrug resistance in HEK293/R482 cells assessed as effect on topotecan-induced cytotoxicity by measuring topotecan IC50 at 1 uM after 72 hrs by CCK8 assay (Rvb = 201.31 +/- 25.89 nM)
[24] = Reversal of ABCG2 (unknown origin)-mediated multidrug resistance in human H460-MX20 cells assessed as effect on mitoxantrone-induced cytotoxicity by measuring mitoxantrone IC50 at 0.5 uM after 72 hrs by MTT assay (Rvb = 1160.60 +/- 365.72 nM)
[25] = Reversal of human ABCG2-mediated multidrug resistance in HEK293/R482 cells assessed as effect on topotecan-induced cytotoxicity by measuring topotecan IC50 at 3 uM after 72 hrs by CCK8 assay (Rvb = 201.31 +/- 25.89 nM)
[26] = Reversal of human ABCG2-mediated multidrug resistance in HEK293/R482 cells assessed as effect on mitoxantrone-induced cytotoxicity by measuring mitoxantrone IC50 at 3 uM after 72 hrs by CCK8 assay (Rvb = 50.66 +/- 6.88 nM)
[27] = Reversal of ABCG2 (unknown origin)-mediated multidrug resistance in human S1-M1-80 cells assessed as effect on topotecan-induced cytotoxicity by measuring topotecan IC50 at 0.5 uM after 72 hrs by MTT assay (Rvb = 10.14 +/- 2.820 uM)
[28] = Reversal of human ABCG2-mediated multidrug resistance in HEK293/R482 cells assessed as effect on mitoxantrone-induced cytotoxicity by measuring mitoxantrone IC50 at 0.5 uM after 72 hrs by CCK8 assay (Rvb = 50.66 +/- 6.88 nM)

C=CC(C)(C)c1cc(/C=C/C(=O)c2ccc(O)cc2)c(OC)cc1O [3-(4-hydroxy-2-methoxy-5-(2-methylbut-3-en-2-yl)phenyl)-1-(4-hydroxyphenyl)prop-2-en-1-one]
IC50 [1]: 0.61 µM
IC50 [2]: 0.367 µM
IC50 [3]: 0.144 µM
IC50 [4]: 0.41 µM
IC50 [5]: 1.53 µM
IC50 [6]: 0.0078 µM
IC50 [7]: 39.5 µM
IC50 [8]: 0.044 µM
IC50 [9]: 49.3 µM
IC50 [10]: 56.5 µM
IC50 [11]: 0.09 µM
IC50 [12]: 0.31 µM
IC50 [13]: 0.075 µM
IC50 [14]: 0.0071 µM
IC50 [15]: 0.086 µM
IC50 [16]: 0.13 µM
IC50 [17]: 6.8 µM
IC50 [18]: 53.6 µM
IC50 [19]: 0.07 µM
IC50 [20]: 2.63 µM
IC50 [21]: 0.148 µM
IC50 [22]: 66.7 µM
IC50 [23]: 0.051 µM
IC50 [24]: 0.442 µM
IC50 [25]: 0.042 µM
IC50 [26]: 0.0062 µM
IC50 [27]: 1.03 µM
IC50 [28]: 0.019 µM
